Test [1] has as its system CD55 surface protein. The experiment in a line: CD55 surface protein expression on hMSCs by flow cytometry. It is filed as cell-based, human. As to conditions: AT-, BM-, UC-hMSC, 5 μM Atr or 5 μM Erl, 24 hr. Here is the method: FIG. 11 is a bar graph of CD55 surface expression on hMSCs following 24 hr in presence of Atorvastatin (Atr) or Erlotinib (Erl), showing % of CD55+ cells (0-100) for each MSC group Adipose Tissue (AT; red), Bone Marrow (BM; blue), and Umbilical Cord (UC; green), respectively, in the presence of nothing (untreated control) 5 μM Atr, or 5 μM Erl.
(§1) The expression of CD55 in hMSC was then validated by RT-qPCR and flow cytometry.

Test [2] deals with CD55 mRNA. Description: CD55 mRNA expression of hMSCs by RT-qPCR. It counts as cell-based, human. Conditions: for CD55 mRNA expression of hMSCs compared to untreated control: AT-, BM-, UC-hMSC, Erlotinib 2, 5, 10 μM or atorvastatin 2, 5, 25, 50 μM, within 24 hours, normalized to GADPH; for Dose dependence of CD55 upregulation in hMSCs: Erlotinib 2-10 μM, atorvastatin 2-50 μM; for Expression of CD55 on hMSC vs untreated control (mRNA or protein level not specified): drug treatment of hMSC. How it is done: FIG. 9 is a bar graph of CD55 mRNA expression of hMSCs in presence of atorvastatin, showing % Normalized to GADPH (0-25) for each MSC group Adipose Tissue (AT; red), Bone Marrow (BM; blue), and Umbilical Cord (UC; green), respectively, in the presence of 0 μM (untreated control) 2 μM, 5 μM, 25 μM, and 50 μM atorvastatin.
FIG. 10 is a bar graph of CD55 mRNA expression of hMSCs in presence of Erlotinib, showing % Normalized to GADPH (0-25) for each MSC group Adipose Tissue (AT; red), Bone Marrow (BM; blue), and Umbilical Cord (UC; green), respectively, in the presence of 0 μM (untreated control) 2 μM, 5 μM, and 10 μM Erlotinib.
as §1
hMSC were treated with Erlotinib, which is an EGFR inhibitor, on different dosages within 24 hours, […]

Entries after “also recorded” stand apart in the source; their conditions may differ.

For `CC(C)c1c(C(=O)Nc2ccccc2)c(-c2ccccc2)c(-c2ccc(F)cc2)n1CC[C@@H](O)C[C@@H](O)CC(=O)O` [atorvastatin, Atorvastatin], in test [1], the “CD55 surface protein level on hMSCs compared with untreated control” value is “increase the expression of CD55 of hMSCs in both mRNA and protein level”. In test [2], the “CD55 mRNA expression of hMSCs compared to untreated control” value was “increase the expression of CD55 of hMSCs in both mRNA and protein level”; the “Dose dependence of CD55 upregulation in hMSCs” value is given as “there was not a similar dose dependent relationship”; the “Expression of CD55 on hMSC vs untreated control (mRNA or protein level not specified)” value was “significantly increased of CD55 expression; also recorded: significantly higher expression of CD55 than untreated control”.

As for `C#Cc1cccc(Nc2ncnc3cc(OCCOC)c(OCCOC)cc23)c1` [erlotinib, Erlotinib], the “CD55 surface protein level on hMSCs compared with untreated control” value in test [1] is “significantly upregulated compared with untreated control”. For the same compound, in test [2], the “CD55 mRNA expression of hMSCs compared to untreated control” value is given as “increased CD55 expression with significance difference in mRNA level compared to untreated control”, the “Dose dependence of CD55 upregulation in hMSCs” value is reported as “dose dependent manner” and the “Expression of CD55 on hMSC vs untreated control (mRNA or protein level not specified)” value was “significantly increased of CD55 expression; also recorded: significantly higher expression of CD55 than untreated control”.

(Values after patent US20230218572A1, “COMPOSITIONS AND METHODS FOR IMPROVED MESENCHYMAL STEM CELL THERAPY” (Versitech Limited, priority 2021, published 2023).)
